Test results taken from patent US20220356398A1, “Composition and Method for Improving the Water Transport Characteristics of Hydrophobic Soils” (Ethox Chemicals, LLC, priority 2021, published 2022).

Key:
[1] = Humic acid removal (detergency)
Text: (§1) Soil treatment polymers are relatively non-polar organic materials with limited water solubility.

[2] = Compatibility with the soil treatment polymers; type: physicochemical
Text: as §1

monophosphate of POE (6) decyl alcohol
humic acid removal properties [1]: good humic acid removal properties
compatibility with the soil treatment polymers [2]: good compatibility
